# Test results reported in article PMC6102129, “Epigallocatechin-3-gallate remodels apolipoprotein A-I amyloid fibrils into soluble oligomers in the presence of heparin” (The Journal of Biological Chemistry, 2018).
# Biological target: T1, monomeric apoA-I (Homo sapiens, UniProt P02647)
# T1 construct: gene APOA1; mature apoA-I residues 3-243 from E. coli BL21(DE3), His tag removed by formic acid at Asp2-Pro3; soluble, lipid-free, monomeric, pH 7
# Assay: WaterLOGSY NMR
# Format: binding
# Conditions: 36 μM apoA-I, phosphate buffer pH 7, no heparin
# T1 sequence (P02647 27-267): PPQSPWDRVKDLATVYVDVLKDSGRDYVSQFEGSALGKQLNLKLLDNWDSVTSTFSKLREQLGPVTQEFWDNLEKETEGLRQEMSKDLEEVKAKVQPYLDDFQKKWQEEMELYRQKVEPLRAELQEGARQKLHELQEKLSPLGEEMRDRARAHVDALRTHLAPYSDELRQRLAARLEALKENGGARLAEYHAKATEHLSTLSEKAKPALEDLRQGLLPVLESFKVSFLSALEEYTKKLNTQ
structure (smiles),measurement,value
"O=C(O[C@@H]1Cc2c(O)cc(O)cc2O[C@@H]1c1cc(O)c(O)c(O)c1)c1cc(O)c(O)c(O)c1 [compound 5, EGCG]",WaterLOGSY NMR,peaks from EGCG broaden and take the opposite sign to the TSP peak
